From patent US5202349A, “Substituted phenylacetylenes, pharmaceutical compositions containing these compounds and processes for the preparation of these compounds and compositions” (Gruenenthal GmbH, priority 1990, dated 1993)

Experiments:
[1] = tested on: ex vivo iLTB4-formation (5-lipoxygenase activity) in whole blood of rats; assay: Inhibition of ex vivo iLTB4-formation in rat whole blood after oral administration; design: species or system male rats (Wistar strain); conditions: Rattus norvegicus, 21.5 mg/kg oral, blood taken 1 hour later
Method: The bioavailability of the compounds of formula I after oral administration was characterized by means of an ex vivo biochemical assessment method described by Tateson et al. in Brit. Pharmacol., 94, 528 (1988).
Compounds of formula I were orally administered to male rats (Wistar strain). 1 hour later the rats were bled by heart puncture in letal CO2 -narcosis. The 5-lipoxygenase reaction was triggered by the addition of the calcium-ionophor A23187 to an end concentration of […] to aliquots of rat whole blood and subsequent incubation for 30 minutes at 37° C. in a water bath. At the end of the incubation the samples were centrifuged to collect the cell free plasma. The concentration of the immunoreactive LTB4 (iLTB4 ng/ml) in each plasma sample was determined by a LTB4 -radioimmunoassay (^3 H-LTB4 -RIA, Amersham) by means of a LTB4 -standard curve in diluted rat plasma. For calculation of the percent inhibition of ex vivo iLTB4 -formation in whole blood of rats treated with the compounds of formula I rats treated with appropiate vehicle solution were included in all experiments, aliquots of their blood were run in parallel and were processed in the same way as described. The mean iLTB4 -formation per ml plasma of these vehicle treated control rats served as 100 percent value of normal control 5-lipoxygenase activity. The percent inhibition of the ex vivo iLTB4 -formation after oral administration of compounds of formula I was calculated as follows: 100 minus 100 times the quotient of the mean iLTB4 concentration per ml plasma of the rats treated with compounds of formula I […] and the mean iLTB4 concentration per ml plasma of the control rats.

[2] = tested on: endotoxin/galactosamine-induced hepatitis, increase of liver specific enzymes in the serum; assay: Endotoxin/galactosamine-induced hepatitis in mice (septic shock model); format: in vivo; conditions: 10 mg/kg i.p. for each of five applications, 8 hours after endotoxin
Method: As a test model to evaluate the effects of test compounds in septic shock the endotoxin/galactosamine-induced hepatitis in mice has been used. […] The intraperitoneal application of 5-lipoxygenase inhibitors 30 minutes before, simultaneously with and 2, 4 and 6 hours after the application of endotoxin inhibitis the hepatitis-induced increase of the serum activities of these enzymes. On administration of compounds of the formula I in doses of 10 mg/kg for each of the five applications the following percentual inhibitions of the increase of the enzymes GPT and SDH were achieved (the increase of enzymatic activities in control animals was set at 100%): […]

[3] = target: T1, 5-lipoxygenase (Rattus norvegicus, UniProt P12527); assay: Inhibition of 5-lipoxygenase in rat basophilic leukemia cells ([14C]-arachidonic acid, TLC); format: cell-based; conditions: for IC50: rat basophilic leukemia cells, standardized to nordihydroguaiaretic acid; for Quotient (IC50 cyclooxygenase (B) / 5-lipoxygenase (A)): selectivity
T1 construct: endogenous in cells; host or cells: rat basophilic leukemia cells
T1 sequence (P12527 1-673): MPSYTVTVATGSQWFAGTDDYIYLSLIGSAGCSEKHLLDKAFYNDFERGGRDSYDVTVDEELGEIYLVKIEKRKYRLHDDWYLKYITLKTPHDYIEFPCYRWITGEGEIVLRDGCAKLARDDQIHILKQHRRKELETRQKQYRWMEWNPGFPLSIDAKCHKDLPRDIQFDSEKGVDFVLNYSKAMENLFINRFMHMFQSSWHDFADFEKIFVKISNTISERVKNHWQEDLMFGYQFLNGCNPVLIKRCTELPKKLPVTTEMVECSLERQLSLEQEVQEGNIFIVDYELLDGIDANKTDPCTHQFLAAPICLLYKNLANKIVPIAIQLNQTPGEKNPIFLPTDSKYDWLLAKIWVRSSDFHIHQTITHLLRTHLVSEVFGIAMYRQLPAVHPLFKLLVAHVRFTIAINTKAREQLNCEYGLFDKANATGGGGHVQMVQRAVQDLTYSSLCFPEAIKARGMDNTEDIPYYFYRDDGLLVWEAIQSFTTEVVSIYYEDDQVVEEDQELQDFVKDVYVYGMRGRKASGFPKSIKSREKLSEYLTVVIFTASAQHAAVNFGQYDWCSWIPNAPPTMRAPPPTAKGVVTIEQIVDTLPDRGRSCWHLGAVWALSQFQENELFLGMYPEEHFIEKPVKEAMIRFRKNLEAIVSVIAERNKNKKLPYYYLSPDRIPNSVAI
Method: To 1 ml each of this suspension there was added indomethacin (10 μM) and calcium chlorid (2 mM) and then the mixture was incubated in presence or absence of a test compound for 3 minutes and thereafter with 20 μM of [^14 C]-arachidonic acid and 20 μM of the calcium ionophore A 23 187 for 10 minutes. The reaction was stopped by adding 20 μl of glacial acetic acid and then the mixture was extracted with ethyl acetate to isolate the metabolites of arachidonic acid formed by the enzymatic action of 5-lipoxygenase. These were separated by thin layer chromatography using a solvent mixture known to be suitable for leukotriene analysis [c.f. Jakschik et al., Biochem. Biophys. Res. Commun. 102, 624 (1981)]. The distribution of the radioactivity to the different metabolites was measured using a TLC Linear Analyzer. By bringing into relationship the percentages of the amount of the products formed under the action of 5-lipoxygenase (5-HETE, isomers of LTB4) in the controls (tests performed in absence of test compounds) and in the presence of test compounds of formula I in different concentrations the "IC50 -value" (i.e. the concentration of the test compound which causes an 50%-inhibition of the 5-lipoxygenase) is determined. For standardization these values then were brought into relationship to the IC50 -values determined in the same manner for the standard compound nordihydroguaiaretic acid.

[4] = target: T2, cyclooxygenase (Ovis aries, UniProt P05979); assay: Inhibition of cyclooxygenase in sheep seminal vesicle microsomes ([14C]-arachidonic acid, TLC); format: biochemical; conditions: pH 7.0, read-out: IC50 for inhibition of cyclooxygenase (B)
T2 construct: suspension of sheep seminal vesicle microsomes; from tissue; host or cells: sheep seminal vesicle microsomes
T2 sequence (P05979 25-600): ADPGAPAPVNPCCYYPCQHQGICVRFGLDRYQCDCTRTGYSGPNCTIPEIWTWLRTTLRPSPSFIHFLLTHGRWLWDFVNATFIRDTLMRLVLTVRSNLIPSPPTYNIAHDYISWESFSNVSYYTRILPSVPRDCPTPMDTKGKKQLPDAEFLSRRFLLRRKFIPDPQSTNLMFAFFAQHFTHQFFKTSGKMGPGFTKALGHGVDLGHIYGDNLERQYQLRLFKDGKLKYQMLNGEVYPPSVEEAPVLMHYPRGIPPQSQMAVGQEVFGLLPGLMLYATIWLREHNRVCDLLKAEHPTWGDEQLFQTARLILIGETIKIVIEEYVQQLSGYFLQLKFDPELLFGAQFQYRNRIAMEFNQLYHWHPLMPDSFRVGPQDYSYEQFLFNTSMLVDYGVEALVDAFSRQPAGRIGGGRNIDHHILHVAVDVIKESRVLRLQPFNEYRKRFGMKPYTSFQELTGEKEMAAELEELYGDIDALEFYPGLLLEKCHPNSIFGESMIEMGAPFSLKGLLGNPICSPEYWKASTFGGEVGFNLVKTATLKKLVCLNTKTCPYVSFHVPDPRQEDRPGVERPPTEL
Method: The effect of the test compounds on the activity of cyclooxygenase was tested using a suspension of sheep seminal vesicle microsomes in 50 mM potassium phosphate buffer of pH 7.0 which was incubated with the solvent only (as control) or with the test compound and [^14 C]-arachidonic acid. The "IC50 -values (B)" (i.e. the concentration of the test compound which causes an 50%-inhibition of the cyclooxygenase) were determined by thin layer chromatography and by means of a TLC-Linear-Analyzer.

CC(=O)N(O)C(C)c1ccc(C#Cc2ccccc2)cc1 (stereo not drawn) [Example 2a, N-{1-[4-(Phenylethynyl)-phenyl]-ethyl}-acetohydroxamic acid]
inhibition in vivo at 21.5 mg/kg [1]: 76%

COc1ccc(C#Cc2cccc(CN(O)C(C)=O)c2)cc1 [Example 4, N-[3-(4-Methoxy-phenylethynyl)-benzyl]-acetohydroxamic acid]
Inhibition of increase of GPT [2]: 87% | Inhibition of increase of SDH [2]: 81%

COc1ccc(C#Cc2cccc(C(C)N(O)C(C)=O)c2)cc1OC (stereo not drawn) [Example 5b, N-{1-[3-(3,4-Dimethoxy-phenylethynyl)-phenyl]-ethyl}-acetohydroxamic acid]
IC50 [3]: 280 nM | Quotient (IC50 cyclooxygenase (B) / 5-lipoxygenase (A)) [3]: > 1786 | IC50 [4]: > 500000 nM

COc1cccc(C#Cc2cccc(C(C)N(O)C(C)=O)c2)c1 (stereo not drawn) [Example 5c, N-{1-[3-(3-Methoxy-phenylethynyl)-phenyl]-ethyl}-acetohydroxamic acid]
inhibition in vivo at 21.5 mg/kg [1]: 88% | IC50 [3]: 580 nM | Quotient (IC50 cyclooxygenase (B) / 5-lipoxygenase (A)) [3]: > 862 | IC50 [4]: > 500000 nM

CC(=O)N(O)Cc1cccc(C#Cc2ccc(C(C)C)cc2)c1 [Example 5e, N-[3-(4-Isopropyl-phenylethynyl)-benzyl]-acetohydroxamic acid]
inhibition in vivo at 21.5 mg/kg [1]: 82%

NC(=O)N(O)Cc1cccc(C#Cc2cccc3ccccc23)c1 [Example 7, N-Hydroxy-N-[-3-(naphth-1-yl-ethynyl)-benzyl]-urea]
inhibition in vivo at 21.5 mg/kg [1]: 90% | IC50 [3]: 650 nM | Quotient (IC50 cyclooxygenase (B) / 5-lipoxygenase (A)) [3]: > 769 | IC50 [4]: > 500000 nM

CC(c1cccc(C#Cc2ccc(F)cc2)c1)N(O)C(N)=O (stereo not drawn) [Example 8b, N-Hydroxy-N-{1-[3-(4-fluorophenylethynyl)-phenyl]-ethyl}-urea]
inhibition in vivo at 21.5 mg/kg [1]: 99%

COc1ccc(C#Cc2cccc(C(C)N(O)C(N)=O)c2)cc1OC (stereo not drawn) [Example 10b, N-Hydroxy-N-{1-[3-(3,4-dimethoxy-phenylethynyl)-phenyl]-ethyl}-urea]
inhibition in vivo at 21.5 mg/kg [1]: 86% | IC50 [3]: 690 nM | Quotient (IC50 cyclooxygenase (B) / 5-lipoxygenase (A)) [3]: > 725 | IC50 [4]: > 500000 nM

COc1cccc(C#Cc2cccc(C(C)N(O)C(N)=O)c2)c1 (stereo not drawn) [Example 10c, N-Hydroxy-N-{1-[3-(3-methoxy-phenylethynyl)-phenyl]-ethyl}-urea]
IC50 [3]: 270 nM | Quotient (IC50 cyclooxygenase (B) / 5-lipoxygenase (A)) [3]: > 1852 | IC50 [4]: > 500000 nM

CC(c1cccc(C#Cc2ccc(Cl)cc2)c1)N(O)C(N)=O (stereo not drawn) [Example 10d, N-Hydroxy-N-{1-[3-(4-chloro-phenylethynyl)-phenyl]-ethyl}-urea]
inhibition in vivo at 21.5 mg/kg [1]: 99% | IC50 [3]: 550 nM | Quotient (IC50 cyclooxygenase (B) / 5-lipoxygenase (A)) [3]: 909 | IC50 [4]: 500000 nM

CC(C)c1ccc(C#Cc2cccc(CN(O)C(N)=O)c2)cc1 [Example 10e]
inhibition in vivo at 21.5 mg/kg [1]: 81%

COc1ccccc1C#Cc1cccc(C(C)N(O)C(N)=O)c1 (stereo not drawn) [Example 10g, N-Hydroxy-N-{1-[3-(2-methoxy-phenylethynyl)-phenyl]-ethyl}-urea]
IC50 [3]: 320 nM | Quotient (IC50 cyclooxygenase (B) / 5-lipoxygenase (A)) [3]: 844 | IC50 [4]: 270000 nM

NC(=O)N(O)Cc1cccc(C#Cc2ccc(Cl)cc2)c1 [Example 10m, N-Hydroxy-N-[3-(4-chlorophenylethynyl)-benzyl]-urea]
IC50 [3]: 260 nM | Quotient (IC50 cyclooxygenase (B) / 5-lipoxygenase (A)) [3]: > 1923 | IC50 [4]: > 500000 nM

COc1ccc(C#Cc2cccc(CN(O)C(N)=O)c2)cc1 [Example 10n, N-Hydroxy-N-[3-(4-methoxyphenylethynyl)-benzyl]-urea]
IC50 [3]: 180 nM | Quotient (IC50 cyclooxygenase (B) / 5-lipoxygenase (A)) [3]: > 2778 | IC50 [4]: > 500000 nM

CC(c1cccc(C#Cc2ccc(C(F)(F)F)cc2)c1)N(O)C(N)=O (stereo not drawn) [Example 11, N-Hydroxy-N-{1-[3-(4-trifluoromethyl-phenylethynyl)-phenyl]-ethyl}-urea]
inhibition in vivo at 21.5 mg/kg [1]: 76% | IC50 [3]: 670 nM | Quotient (IC50 cyclooxygenase (B) / 5-lipoxygenase (A)) [3]: > 746 | IC50 [4]: > 500000 nM

CC(=O)N(O)C(C)c1cccc(C#Cc2ccc(Cl)cc2)c1 (stereo not drawn) [Example 12, N-{1-[3-(4-Chloro-phenylethynyl)-phenyl]-ethyl}-acetohydroxamic acid]
inhibition in vivo at 21.5 mg/kg [1]: 87%

CC(c1ccc(C#Cc2cccs2)cc1)N(O)C(N)=O (stereo not drawn) [Example 15, N-Hydroxy-N-{1-[4-(thien-2-yl-ethynyl)-phenyl]-ethyl}-urea]
inhibition in vivo at 21.5 mg/kg [1]: 77% | IC50 [3]: 410 nM | Quotient (IC50 cyclooxygenase (B) / 5-lipoxygenase (A)) [3]: 1220 | IC50 [4]: 500000 nM

CC(c1ccc(C#Cc2ccsc2)cc1)N(O)C(N)=O (stereo not drawn) [Example 16b, N-Hydroxy-N-{1-[4-(thien-3-yl-ethynyl)-phenyl]-ethyl}-urea]
inhibition in vivo at 21.5 mg/kg [1]: 91% | IC50 [3]: 290 nM | Quotient (IC50 cyclooxygenase (B) / 5-lipoxygenase (A)) [3]: 1724 | IC50 [4]: 500000 nM

NC(=O)N(O)Cc1ccc(C#Cc2cccs2)cc1 [Example 16d, N-Hydroxy-N-[4-(thien-2-yl-ethynyl)-benzyl]-urea]
IC50 [3]: 370 nM | Quotient (IC50 cyclooxygenase (B) / 5-lipoxygenase (A)) [3]: 1351 | IC50 [4]: 500000 nM

NC(=O)N(O)Cc1ccc(C#Cc2ccsc2)cc1 [Example 16f, N-Hydroxy-N-[4-(thien-3-yl-ethynyl)-benzyl]-urea]
inhibition in vivo at 21.5 mg/kg [1]: 97% | IC50 [3]: 410 nM | Quotient (IC50 cyclooxygenase (B) / 5-lipoxygenase (A)) [3]: 1220 | IC50 [4]: 500000 nM
